Like-named read-outs stand apart in the source and are kept apart here.
Experiment: Pharmacokinetics study: exposure in inner ear, perilymph and tail plasma after single oral dose
Format: in vivo, Wistar rats
Details: for Total AUC Inner ear / Total AUC Perilymph / Total AUC Tail plasma / concentration at 15 min / concentration at 30 min / concentration at 60 min / concentration at 120 min / concentration at 240 min / concentration at 480 min: 10 mg/kg p.o. single dose; for concentration at 15 min / concentration at 30 min / concentration at 60 min / concentration at 120 min / concentration at 240 min / concentration at 480 min / AUC: male, Wistar, rat; for concentration at 15 min / concentration at 30 min / concentration at 60 min / concentration at 120 min / concentration at 240 min / concentration at 480 min: oral, read-out: Average Inner ear concentration (ng azasetron free-base/g tissue); for AUC: po, 10 mg/kg, 10 mg/kg p.o., per-interval AUC of azasetron free-base
Excerpt: The 72 male Wistar rats received on 28 Jan. 2016 from Janvier (Janvier, Le Genest-St-Isle) were assigned to the study. They were divided in 3 groups of 24 animals each, one group per test article. Each group was divided in […] subgroups according to the 6-termination time-points.
72 Wistar rats were subjected to oral single dose administration of the test article, racemic azasetron hydrochloride, azasetron hydrochloride (+) or azasetron hydrochloride (−), and sacrificed at different time-points to assess the exposure of the test article in the inner ear, perilymph, and plasma. • Group racemic azasetron: 24 male Wistar, 4 rats per time-point: 10 mg/kg azasetron HCl dissolved in NaCl 0.9%. Administrated as 5 mL/kg p.o.; • Group azasetron (+): 24 male Wistar, 4 rats per time-point: 10 mg/kg (+)-azasetron HCl dissolved in NaCl 0.9%. Administrated as 5 mL/kg p.o.; • Group azasetron (−): 24 male Wistar, 4 rats per time-point: 10 mg/kg (−)-azasetron HCl dissolved in NaCl 0.9%. Administrated as 5 mL/kg p.o.
There were 6 termination time-points for each test article. At time-points 15/30/60/120/240/480 minutes after administration: peripheral plasma from the tail was sampled. The animals were sacrificed by i.v. administration of 0.25 mL/rat of a 160 mg/mL pentobarbital solution. Following sacrifice, the heart blood and both tympanic bullas (left and right) were sampled.
Both tympanic bullas (left and right) were collected, however, only the left one was used for the perilymph and inner ear analysis. The right bulla was stored at −20° C. for future needs when required. For animal IDs 1 and 4, the right bulla was used for the sampling of perilymph and inner ear.
The left bulla was dissected fresh. Briefly, the bulla was opened via the auditory opening to reveal the bone surrounding the cochlea after which the tip of the bone was removed with forceps and a 10 μL pipette tip was inserted to withdraw perilymph.
Upon exposure of the tip of the cochlea, 2 μL of perilymph (fluid) could be recovered from the bulla. The perilymph was brought to 10 μL by the addition of 8 μL water, and then extract via the addition of 30 μL of acetonitrile. After that, the samples were centrifuged and the supernatant was transferred to a glass vial appropriate for the HPLC-MS auto-sampler.
Following recovering of the perilymph, the bones of the inner ear and cochlea components were removed with fine forceps and added to a tared Eppendorf tube. The collection was weighed and brought to 10 mg with the addition of water and placed on ice until extraction. 30 μL of acetonitrile was added and the tubes were incubated in an ultrasound bath, after which they were centrifuged and the supernatant was transferred to a glass vial appropriate for the HPLC-MS auto-sampler. In the process or removing the bones of the inner ear, they were finely distributed in the media and broken by forceps. (Due to the very low volume of the tissue and its fine structure, separate grinding is considered risky vs the potential losses to plastic and media. The materials are very fine in nature and the bone particles are small thus providing only short interfaces to media. The absence of fat and the incubation in solvent is intended to provide sufficient solubility of active ingredient).
The acetonitrile used in the sample preparation for bio-analysis contained the internal standard for the HPLC-MS analysis.
30 μL acetonitrile including the internal standard were added to each 10 μL plasma sample. After adding the acetonitrile, the samples were mixed by vortex and further centrifuged. The supernatant was transferred to a glass vial appropriate for the HPLC-MS auto-sampler.
The LC system comprised an Agilent 1260 liquid chromatography equipped with a binary pump and a column oven, together with a PAL HTS-xt auto-sampler. It is linked to the AB SCIEX TRIPLE QUADTM 4500 (triple-quadrupole) instrument with an ESI interface and a switching valve integrated (Mass spectrometric analysis). […]

[1] = inner ear, Time 15 (min), read-out: Inner ear AUC (converted)
[2] = inner ear, Time 30 (min), read-out: Inner ear AUC (converted)
[3] = inner ear, Time 60 (min), read-out: Inner ear AUC (converted)
[4] = inner ear, Time 120 (min), read-out: Inner ear AUC (converted)
[5] = inner ear, Time 240 (min), read-out: Inner ear AUC (converted)
[6] = inner ear, Time 480 (min), read-out: Inner ear AUC (converted)
[7] = perilymph, Time 15 (min), read-out: Perilymph AUC (converted)
[8] = perilymph, Time 30 (min), read-out: Perilymph AUC (converted)
[9] = perilymph, Time 60 (min), read-out: Perilymph AUC (converted)
[10] = perilymph, Time 120 (min), read-out: Perilymph AUC (converted)
[11] = perilymph, Time 240 (min), read-out: Perilymph AUC (converted)
[12] = perilymph, Time 480 (min), read-out: Perilymph AUC (converted)
[13] = tail plasma, Time 15 (min), read-out: Tail plasma AUC (converted)
[14] = tail plasma, Time 30 (min), read-out: Tail plasma AUC (converted)
[15] = tail plasma, Time 60 (min), read-out: Tail plasma AUC (converted)
[16] = tail plasma, Time 120 (min), read-out: Tail plasma AUC (converted)
[17] = tail plasma, Time 240 (min), read-out: Tail plasma AUC (converted)
[18] = tail plasma, Time 480 (min), read-out: Tail plasma AUC (converted)

Row | SMILES | Total AUC Inner ear [nM·min] | Total AUC Perilymph [nM·min] | Total AUC Tail plasma [nM·min] | concentration at 15 min (inner ear, Time 15 (min)) [ng/g] | concentration at 30 min (inner ear, Time 30 (min)) [ng/g] | concentration at 60 min (inner ear, Time 60 (min)) [ng/g] | concentration at 120 min (inner ear, Time 120 (min)) [ng/g] | concentration at 240 min (inner ear, Time 240 (min)) [ng/g] | concentration at 480 min (inner ear, Time 480 (min)) [ng/g] | AUC [1] [µM·h] | AUC [2] [µM·h] | AUC [3] [µM·h] | AUC [4] [µM·h] | AUC [5] [µM·h] | AUC [6] [µM·h] | AUC [7] [µM·h] | AUC [8] [µM·h] | AUC [9] [µM·h] | AUC [10] [µM·h] | AUC [11] [µM·h] | further results
1 | CN1C(=O)COc2c(C(=O)NC3CN4CCC3CC4)cc(Cl)cc21 (racemic) [Racemic azasetron, N-(1-azabicyclo[2.2.2]octan-8-yl)-6-chloro-4-methyl-3-oxo-1,4-benzoxazine-8-carboxamide] | 43592 | 25873 | 177194 | 25 | 61 | 63 | 35 | 37 | 7 | 0.0119 | 0.0336 | 0.0887 | 0.14 | 0.204 | 0.248 | 0.0183 | 0.0328 | 0.0455 | 0.0635 | 0.117 | AUC [12]: 0.154 µM·h; AUC [13]: 0.168 µM·h; AUC [14]: 0.263 µM·h; AUC [15]: 0.309 µM·h; AUC [16]: 0.374 µM·h; AUC [17]: 0.758 µM·h; AUC [18]: 1.08 µM·h
2 | CN1C(=O)COc2c(C(=O)N[C@H]3CN4CCC3CC4)cc(Cl)cc21 [(+)-azasetron] | 69036 | 40910 | 210768 | 57 | 86 | 93 | 79 | 52 | 6 | 0.0204 | 0.051 | 0.127 | 0.246 | 0.375 | 0.331 | 0.0194 | 0.0297 | 0.0517 | 0.129 | 0.227 | AUC [12]: 0.225 µM·h; AUC [13]: 0.0983 µM·h; AUC [14]: 0.192 µM·h; AUC [15]: 0.35 µM·h; AUC [16]: 0.622 µM·h; AUC [17]: 1.11 µM·h; AUC [18]: 1.14 µM·h; exposure (total AUC) to azasetron in the perilymph, inner ear, and plasma versus racemic azasetron or (−)-azasetron (single equivalent oral dose (10 mg/kg)): greater exposure (total AUC)
